Laboratory results taken from patent US10364245B2 (CHIESI FARMACEUTICI S.p.A., priority 2017, dated 2019).
pIC50: −log10 of the molar value. Counter-ions that a name gives are not always drawn.

How the values were obtained:
p38 alpha = biological target: T1, p38 alpha (Homo sapiens, UniProt Q16539); assay: P38 alpha enzyme inhibition assay (Alphascreen kinase activity assay); type: biochemical; conditions: 100 pM p38 alpha, 2 hours preincubation at 25° C., 250 μM ATP, ATF-2 fusion protein; read-out: p38α inhibition
T1 construct: purchased Invitrogen PV3304
Procedure, shortened: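 100 pM p38 alpha preincubated 2 h at 25 °C with compound and 0.3 μg/ml ATF-2 fusion substrate (HEPES pH 7.5, MgCl2, 1% DMSO). Reaction started with 250 μM ATP, run 1 h at 25 °C, stopped with EDTA; phospho-ATF2 detected by AlphaScreen luminescence. IC50 from concentration-response curves.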

[1] = system: Peripheral Blood Mononuclear Cells (PBMCs), TNFα release; assay: LPS-stimulated PBMC TNFα release assay; type: cell-based; conditions: human PBMC, LPS (10 ng/ml), 18 h, compound 1 h before LPS; read-out: LPS-stimulated PBMC TNFα release inhibition
Procedure, shortened: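 Human PBMCs from healthy donors, serum-starved 3 h, then pre-incubated 1 h at 37 °C with compound in 1% FBS medium before LPS (10 ng/ml) for 18 h. Supernatant TNFα measured by MSD; IC50 from dose-response as % inhibition of control, at least three experiments.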

T1 sequence (Q16539 whole entry, the tested form may be a part): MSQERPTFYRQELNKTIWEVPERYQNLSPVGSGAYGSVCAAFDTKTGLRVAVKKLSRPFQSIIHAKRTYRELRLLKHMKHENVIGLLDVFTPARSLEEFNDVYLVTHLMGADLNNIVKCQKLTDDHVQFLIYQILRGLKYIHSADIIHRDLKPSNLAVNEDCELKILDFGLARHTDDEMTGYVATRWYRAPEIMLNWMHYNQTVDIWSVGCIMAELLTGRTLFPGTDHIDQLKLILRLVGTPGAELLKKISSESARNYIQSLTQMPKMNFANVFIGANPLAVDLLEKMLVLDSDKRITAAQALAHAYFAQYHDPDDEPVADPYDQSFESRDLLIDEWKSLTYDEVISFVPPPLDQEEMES

SMILES	pIC50 (p38 alpha)	pIC50 [1]
CN(CCNC(=O)c1nc(NC(=O)N[C@H]2CC[C@@H](Oc3ccc4nnc(C(C)(C)C)n4c3)c3ccccc32)cc(C(C)(C)C)n1)C1COC1 [Example 107, 4-(tert-butyl)-6-(3-((1S,4R)-4-((3-(tert-butyl)-[1,2,4]triazolo[4,3-a]pyridin-6-yl)oxy)-1,2,3,4-tetrahydronaphthalen-1-yl)ureido)-N-(2-(methyl(oxetan-3-yl)amino)ethyl)-pyrimidine-2-carboxamide]	> 9.00	< 8.30
CC(C)(C)c1cc(NC(=O)N[C@H]2CC[C@@H](Oc3ccc4nnc(C(C)(C)C)n4c3)c3ccccc32)nc(C(=O)NCCN2CCC(O)CC2)n1 [Example 108, 4-(tert-butyl)-6-(3-((1S,4R)-4-((3-(tert-butyl)-[1,2,4]triazolo[4,3-a]pyridin-6-yl)oxy)-1,2,3,4-tetrahydronaphthalen-1-yl)ureido)-N-(2-(4-hydroxypiperidin-1-yl)ethyl)pyrimidine-2-carboxamide]	> 9.00	< 8.30
CC(C)(C)c1cc(NC(=O)N[C@H]2CC[C@@H](Oc3ccc4nnc(C5(C)CCC5)n4c3)c3ccccc32)nc(C(=O)NCCN2CCOCC2)n1 [Example 109, 4-(tert-butyl)-6-(3-((1S,4R)-4-((3-(1-methylcyclobutyl)-[1,2,4]triazolo[4,3-a]pyridin-6-yl)oxy)-1,2,3,4-tetrahydronaphthalen-1-yl)ureido)-N-(2-morpholinoethyl)-pyrimidine-2-carboxamide]	> 9.00	< 8.30
CN1CCC[C@H]1C(=O)NCc1nc(NC(=O)N[C@H]2CC[C@@H](Oc3ccc4nnc(C(C)(C)C)n4c3)c3ccccc32)cc(C(C)(C)C)n1 [Example 110, (S)-N-((4-(tert-butyl)-6-(3-((1S,4R)-4-((3-(tert-butyl)-[1,2,4]triazolo[4,3-a]pyridin-6-yl)oxy)-1,2,3,4-tetrahydronaphthalen-1-yl)ureido)pyrimidin-2-yl)methyl)-1-methylpyrrolidine-2-carboxamide]	8.00 to 9.00	8.30 to 9.00
CC(C)(C)c1cc(NC(=O)N[C@H]2CC[C@@H](Oc3ccc4nnc(C(C)(C)C)n4c3)c3ccccc32)nc(C(=O)NCCCN2CCCOCC2)n1 [Example 111, N-(3-(1,4-Oxazepan-4-yl)propyl)-4-(tert-butyl)-6-(3-((1S,4R)-4-((3-(tert-butyl)-[1,2,4]triazolo[4,3-a]pyridin-6-yl)oxy)-1,2,3,4-tetrahydronaphthalen-1-yl)ureido)pyrimidine-2-carboxamide partial formate salt]	> 9.00	< 8.30
CN(C)CC(C)(C)NC(=O)c1nc(NC(=O)N[C@H]2CC[C@@H](Oc3ccc4nnc(C(C)(C)C)n4c3)c3ccccc32)cc(C(C)(C)C)n1 [Example 112, 4-(tert-butyl)-6-(3-((1S,4R)-4-((3-(tert-butyl)-[1,2,4]triazolo[4,3-a]pyridin-6-yl)oxy)-1,2,3,4-tetrahydronaphthalen-1-yl)ureido)-N-(1-(dimethylamino)-2-methylpropan-2-yl)pyrimidine-2-carboxamide]	8.00 to 9.00	8.30 to 9.00
CC(C)(C)c1cc(NC(=O)N[C@H]2CC[C@@H](Oc3ccc4nnc(C(C)(C)C)n4c3)c3ccccc32)nc(CN2CCNC(=O)C2)n1 [Example 113, 1-(6-(tert-Butyl)-2-((3-oxopiperazin-1-yl)methyl)pyrimidin-4-yl)-3-((1S,4R)-4-((3-(tert-butyl)-[1,2,4]-triazolo[4,3-a]pyridin-6-yl)oxy)-1,2,3,4-tetrahydronaphthalen-1-yl)urea partial formate salt]	8.00 to 9.00	< 8.30
CCN(C)CCNC(=O)c1nc(NC(=O)N[C@H]2CC[C@@H](Oc3ccc4nnc(C(C)(C)C)n4c3)c3ccccc32)cc(C(C)(C)C)n1 [Example 114, 4-(tert-butyl)-6-(3-((1S,4R)-4-((3-(tert-butyl)-[1,2,4]triazolo[4,3-a]pyridin-6-yl)oxy)-1,2,3,4-tetrahydronaphthalen-1-yl)ureido)-N-(2-(ethyl(methyl)amino)-ethyl)pyrimidine-2-carboxamide]	> 9.00	> 9.00
CN(C)C(C)(C)CNC(=O)c1nc(NC(=O)N[C@H]2CC[C@@H](Oc3ccc4nnc(C(C)(C)C)n4c3)c3ccccc32)cc(C(C)(C)C)n1 [Example 117, 4-(tert-butyl)-6-(3-((1S,4R)-4-((3-(tert-butyl)-[1,2,4]triazolo[4,3-a]pyridin-6-yl)oxy)-1,2,3,4-tetrahydronaphthalen-1-yl)ureido)-N-(2-(dimethylamino)-2-methylpropyl)pyrimidine-2-carboxamide]	> 9.00	> 9.00
CN(C)CCCNC(=O)c1nc(NC(=O)N[C@H]2CC[C@@H](Oc3ccc4nnc(C(C)(C)C)n4c3)c3ccccc32)cc(C(C)(C)C)n1 [Example 118, 4-(tert-butyl)-6-(3-((1S,4R)-4-((3-(tert-butyl)-[1,2,4]triazolo[4,3-a]pyridin-6-yl)oxy)-1,2,3,4-tetrahydronaphthalen-1-yl)ureido)-N-(3-(dimethylamino)-propyl)pyrimidine-2-carboxamide]	8.00 to 9.00	8.30 to 9.00
CN1CCN(CCNC(=O)c2nc(NC(=O)N[C@H]3CC[C@@H](Oc4ccc5nnc(C(C)(C)C)n5c4)c4ccccc43)cc(C(C)(C)C)n2)CC1 [Example 119, 4-(tert-butyl)-6-(3-((1S,4R)-4-((3-(tert-butyl)-[1,2,4]triazolo[4,3-a]pyridin-6-yl)oxy)-1,2,3,4-tetrahydronaphthalen-1-yl)ureido)-N-(2-(4-methylpiperazin-1-yl)ethyl)pyrimidine-2-carboxamide]	> 9.00	< 8.30
CC(C)(C)c1cc(NC(=O)N[C@H]2CC[C@@H](Oc3ccc4nnc(C(C)(C)C)n4c3)c3ccccc32)nc(C(=O)NCCN(CCO)CCO)n1 [Example 120, N-(2-(bis(2-hydroxyethyl)amino)ethyl)-4-(tert-butyl)-6-(3-((1S,4R)-4-((3-(tert-butyl)-[1,2,4]triazolo[4,3-a]pyridin-6-yl)oxy)-1,2,3,4-tetrahydronaphthalen-1-yl)ureido)pyrimidine-2-carboxamide]	> 9.00	< 8.30
COCC(C)(C)c1nnc2ccc(O[C@@H]3CC[C@H](NC(=O)Nc4cc(C(C)(C)C)nc(C(=O)NCCCN5CCOCC5)n4)c4ccccc43)cn12 [Example 121, 4-(tert-butyl)-6-(3-((1S,4R)-4-((3-(1-methoxy-2-methylpropan-2-yl)-[1,2,4]triazolo[4,3-a]pyridin-6-yl)oxy)-1,2,3,4-tetrahydronaphthalen-1-yl)ureido)-N-(3-morpholinopropyl)-pyrimidine-2-carboxamide]	> 9.00	8.30 to 9.00
COCC(C)(C)c1nnc2ccc(O[C@@H]3CC[C@H](NC(=O)Nc4cc(C(C)(C)C)nc(C(=O)NCCN5CCCOCC5)n4)c4ccccc43)cn12 [Example 122, N-(2-(1,4-oxazepan-4-yl)ethyl)-4-(tert-butyl)-6-(3-((1S,4R)-4-((3-(1-methoxy-2-methylpropan-2-yl)-[1,2,4]triazolo[4,3-a]pyridin-6-yl)oxy)-1,2,3,4-tetrahydronaphthalen-1-yl)ureido)pyrimidine-2-carboxamide]	> 9.00	8.30 to 9.00
COCC(C)(C)c1nnc2ccc(O[C@@H]3CC[C@H](NC(=O)Nc4cc(C(C)(C)C)nc(C(=O)NCCN(C)CCO)n4)c4ccccc43)cn12 [Example 123, 4-(tert-butyl)-N-(2-((2-hydroxyethyl)(methyl)-amino)ethyl)-6-(3-((1S,4R)-4-((3-(1-methoxy-2-methylpropan-2-yl)-[1,2,4]triazolo[4,3-a]pyridin-6-yl)oxy)-1,2,3,4-tetrahydronaphthalen-1-yl)ureido)pyrimidine-2-carboxamide]	> 9.00	8.30 to 9.00
COC(C)(C)c1nnc2ccc(O[C@@H]3CC[C@H](NC(=O)Nc4cc(C(C)(C)C)nc(C(=O)NCCCN5CCOCC5)n4)c4ccccc43)cn12 [Example 124]	8.00 to 9.00	8.30 to 9.00
COC(C)(C)c1nnc2ccc(O[C@@H]3CC[C@H](NC(=O)Nc4cc(C(C)(C)C)nc(C(=O)NCCN(C)CCO)n4)c4ccccc43)cn12 [Example 125, 4-(tert-butyl)-N-(2-((2-hydroxyethyl)(methyl)-amino)ethyl)-6-(3-((1S,4R)-4-((3-(2-methoxypropan-2-yl)-[1,2,4]triazolo[4,3-a]pyridin-6-yl)oxy)-1,2,3,4-tetrahydronaphthalen-1-yl)ureido)pyrimidine-2-carboxamide]	8.00 to 9.00	< 8.30
CN1CC(C(=O)NCc2nc(NC(=O)N[C@H]3CC[C@@H](Oc4ccc5nnc(C(C)(C)C)n5c4)c4ccccc43)cc(C(C)(C)C)n2)C1 [Example 126, N-((4-(tert-butyl)-6-(3-((1S,4R)-4-((3-(tert-butyl)-[1,2,4]triazolo[4,3-a]pyridin-6-yl)oxy)-1,2,3,4-tetrahydronaphthalen-1-yl)ureido)pyrimidin-2-yl)methyl)-1-methylazetidine-3-carboxamide]	> 9.00	< 8.30
CN(C)CCC(=O)NCc1nc(NC(=O)N[C@H]2CC[C@@H](Oc3ccc4nnc(C(C)(C)C)n4c3)c3ccccc32)cc(C(C)(C)C)n1 [Example 127, N-((4-(tert-butyl)-6-(3-((1S,4R)-4-((3-(tert-butyl)-[1,2,4]triazolo[4,3-a]pyridin-6-yl)oxy)-1,2,3,4-tetrahydronaphthalen-1-yl)ureido)pyrimidin-2-yl)methyl)-3-(dimethylamino)-propanamide]	> 9.00	< 8.30
